Results as given in patent US9776972B2, “Pyrazole derivatives as arginine methyltransferase inhibitors and uses thereof” (priority 2013, dated 2017).

Target: human PRMT3 (Homo sapiens, UniProt O60678)
Test: PRMT3 Biochemical Assay (3H-SAM Flashplate, peptide substrate)
Conditions: single experiment or average of multiple experiments
Source text: S-adenosylmethionine (SAM), S-adenosylhomocysteine (SAH), bicine, Tween20, dimethylsulfoxide (DMSO), bovine skin gelatin (BSG), isopropyl-β-D-thiogalactopyranoside (IPTG), and Tris(2-carboxyethyl)phosphine hydrochloride solution (TCEP) were purchased from Sigma-Aldrich at the highest level of purity possible. ^3H-SAM was purchase from American Radiolabeled Chemicals with a specific activity of 80 Ci/mmol. 384-well streptavidin Flashplates were purchased from PerkinElmer.
Peptide containing the classic RMT substrate motif was synthesized with an N-terminal linker-affinity tag motif and a C-terminal amide cap by 21st Century Biochemicals. The peptide was purified by high-performance liquid chromatography (HPLC) to greater than 95% purity and confirmed by liquid chromatography mass spectrometry (LC-MS). The sequence was Biot-Ahx-[…]-amide (SEQ ID NO.:11).
Full-length human PRMT3 (NM_005788.3) isoform 1 transcript clone was amplified from an HEK 293 cDNA library and subcloned into pGEX-KG (GE Life Sciences). The resulting construct encodes an N-terminal GST tag and a thrombin cleavage sequence ([…] […] […] […]) (SEQ ID NO.: 12) fused directly to Cys 2 of PRMT3.
E. coli (BL21(DE3) Gold, Stratagene) made competent by the CaCl2 method were transformed with the PRMT3 construct and ampicillin selection. Protein over-expression was accomplished by growing the PRMT3 expressing E. coli clone and inducing expression with 0.3 mM IPTG at 16° C. The culture was grown for 12 hours, harvested by centrifugation, and stored at −80° C. for purification.
GST-tagged PRMT3 was eluted with 50 mM Tris, 2 mM glutathione, pH 7.1 and 50 mM Tris, 20 mM glutathione, pH 7.1. Pooled fractions were dialysed in 20 mM Tris, 50 mM NaCl, 5% glycerol, 1 mM EDTA, 1 mM DTT, pH7.5 (Buffer B) and applied to a Q Sepharose Fast Flow column. GST-tagged PRMT3 was eluted by 500 mM NaCl in buffer B. Pooled fractions were dialyzed in 25 mM phosphate buffer, 100 mM NaCl, 5% glycerol, 2 mM DTT, pH 6.8 (Buffer C) and loaded on to a ceramic hydroxyapatite column. GST-tagged PRMT3 eluted with 25-400 mM phosphate in buffer C. Protein was concentrated and buffer was exchanged to 20 mM Tris, 150 mM NaCl, 5% glycerol, 5 mM β-mercaptoethanol, pH7.8 by ultrafiltration. The purity of recovered protein was 70%.
General Procedure for PRMT3 Enzyme Assays on Peptide Substrates.
The assays were all performed in a buffer consisting of 20 mM Bicine (pH=7.6), 1 mM TCEP, 0.005% BSG, and 0.002% Tween 20, prepared on the day of use. Compounds in 100% DMSO (1 ul) were spotted into a polypropylene 384-well V-bottom plates (Greiner) using a Platemate Plus outfitted with a 384-channel head (Thermo Scientific). DMSO (1 ul) was added to Columns 11, 12, 23, 24, rows A-H for the maximum signal control and 1 ul of SAH, a known product and inhibitor of PRMT3, was added to columns 11, 12, 23, 24, rows I-P for the minimum signal control. A cocktail (40 ul) containing the PRMT3 enzyme was added by Multidrop Combi (Thermo-Fisher). The compounds were allowed to incubate with PRMT3 for 30 min at room temperature, then a cocktail (10 ul) containing SAM and peptide was added to initiate the reaction (final volume=51 ul). The final concentrations of the components were as follows: PRMT3 was 0.5 nM, ^3H-SAM was 100 nM, non-radiolabeled SAM was 1.8 uM, peptide was 330 nM, SAH in the minimum signal control wells was 1 mM, and the DMSO concentration was 2%. The assays were stopped by the addition of potassium chloride (10 ul) to a final concentration of 100 mM. 50 ul of the reaction in the 384-well polypropylene plate was then transferred to a 384-well Flashplate and the biotinylated peptides were allowed to bind to the streptavidin surface for at least 1 hour before being washed once with 0.1% Tween20 in a Biotek ELx405 plate washer. […]

Sequence of human PRMT3 (O60678 with tags, fused parts or gaps): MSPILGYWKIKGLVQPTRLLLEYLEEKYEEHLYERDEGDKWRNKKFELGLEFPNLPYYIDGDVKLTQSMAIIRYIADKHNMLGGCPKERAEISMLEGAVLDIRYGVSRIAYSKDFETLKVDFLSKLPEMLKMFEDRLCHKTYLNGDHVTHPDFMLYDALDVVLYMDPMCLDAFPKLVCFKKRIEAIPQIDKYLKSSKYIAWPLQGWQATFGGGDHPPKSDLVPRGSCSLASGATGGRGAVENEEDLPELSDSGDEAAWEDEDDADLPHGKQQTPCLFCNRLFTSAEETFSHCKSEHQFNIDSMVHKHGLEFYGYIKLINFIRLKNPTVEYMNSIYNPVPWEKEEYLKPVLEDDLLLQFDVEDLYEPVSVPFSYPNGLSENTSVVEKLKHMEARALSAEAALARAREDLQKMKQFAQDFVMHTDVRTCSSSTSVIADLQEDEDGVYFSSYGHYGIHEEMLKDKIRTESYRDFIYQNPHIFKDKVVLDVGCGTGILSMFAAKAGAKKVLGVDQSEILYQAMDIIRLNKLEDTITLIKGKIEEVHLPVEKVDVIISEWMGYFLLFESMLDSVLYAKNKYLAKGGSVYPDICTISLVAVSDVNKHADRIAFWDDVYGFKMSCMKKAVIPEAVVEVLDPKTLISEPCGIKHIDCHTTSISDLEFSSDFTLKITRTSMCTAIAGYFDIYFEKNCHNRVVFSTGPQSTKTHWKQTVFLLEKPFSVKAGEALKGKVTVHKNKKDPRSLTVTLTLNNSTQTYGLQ

IC50 [µM] | Compound
8.56 | COc1ccc(-c2n[nH]cc2CN(C)CCN)c(C)c1 [Compound 155]
3.52 | Cc1ccc(-c2n[nH]cc2CN(C)CCN)cc1 [Compound 162]
3.45 | CCOc1ccc(-c2n[nH]cc2CN(C)CCN)cc1 [Compound 166]
3.74 | COCCOc1ccc(-c2n[nH]cc2CN(C)CCN)cc1 [Compound 167]
7.33 | CC(C)Cc1ccc(-c2c[nH]nc2CN(C)CCN)cc1 [Compound 170]
3.41 | CN(CCN)Cc1c[nH]nc1-c1ccc(OCCN2CCOCC2)cc1 [Compound 172]

More lines, now with the values behind:

Compound | IC50 [µM]
CNCCN(C)Cc1cnn(C2CC2)c1-c1ccc(F)cc1 [Compound 14] | 23.3
CNCCN(C)Cc1cnn(C(C)C)c1-c1ccc(F)cc1 [Compound 16] | > 50
CNCCN(C)Cc1cn[nH]c1-c1ccc(C#N)cc1 [Compound 17] | 2.79
CNCCN(C)Cc1cn[nH]c1-c1cc(F)cc(F)c1 [Compound 18] | 7.43
CN(CCN)Cc1n[nH]cc1-c1ccc(C2CCOCC2)cc1 [Compound 145] | 7.18
COc1ccc(-c2n[nH]cc2CN(C)CCN)c(Cl)c1 [Compound 146] | 9
CN(CCN)Cc1c[nH]nc1-c1cccc(N(C)C)c1 [Compound 149] | 9.02
Cc1cc(F)ccc1-c1n[nH]cc1CN(C)CCN [Compound 152] | 9.63
COc1ccc(-c2n[nH]cc2CN(C)CCN)cc1 [Compound 153] | 4.1
